The results in this text go back to patent US10392391B2 (Vertex Pharmaceuticals Incorporated, priority 2012, dated 2019).

The structures appear in SMILES notation. Read-outs that look alike come from different tables or passages of the source.

The assay addresses ATR kinase (full-length ATR) (Homo sapiens (Human), UniProt Q13535). As to the kind of experiment: ATR inhibition assay (radioactive-phosphate incorporation). It counts as biochemical. In outline: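 Radiometric 33P incorporation by 5 nM full-length ATR into 800 μM target peptide with 10 μM [γ-33P]ATP, in 50 mM Tris/HCl pH 7.5, 10 mM MgCl2, 1 mM DTT, 7% DMSO, 25° C. Compound pre-incubated 10 minutes; reaction stopped after 24 hours, captured on phosphocellulose. Ki(app) from non-linear regression of initial rates.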

Where [1] appears, read: Ki(app), 5 nM full-length ATR, 10 μM ATP, 25° C.

Chain of ATR kinase (full-length ATR) (Q13535 whole entry): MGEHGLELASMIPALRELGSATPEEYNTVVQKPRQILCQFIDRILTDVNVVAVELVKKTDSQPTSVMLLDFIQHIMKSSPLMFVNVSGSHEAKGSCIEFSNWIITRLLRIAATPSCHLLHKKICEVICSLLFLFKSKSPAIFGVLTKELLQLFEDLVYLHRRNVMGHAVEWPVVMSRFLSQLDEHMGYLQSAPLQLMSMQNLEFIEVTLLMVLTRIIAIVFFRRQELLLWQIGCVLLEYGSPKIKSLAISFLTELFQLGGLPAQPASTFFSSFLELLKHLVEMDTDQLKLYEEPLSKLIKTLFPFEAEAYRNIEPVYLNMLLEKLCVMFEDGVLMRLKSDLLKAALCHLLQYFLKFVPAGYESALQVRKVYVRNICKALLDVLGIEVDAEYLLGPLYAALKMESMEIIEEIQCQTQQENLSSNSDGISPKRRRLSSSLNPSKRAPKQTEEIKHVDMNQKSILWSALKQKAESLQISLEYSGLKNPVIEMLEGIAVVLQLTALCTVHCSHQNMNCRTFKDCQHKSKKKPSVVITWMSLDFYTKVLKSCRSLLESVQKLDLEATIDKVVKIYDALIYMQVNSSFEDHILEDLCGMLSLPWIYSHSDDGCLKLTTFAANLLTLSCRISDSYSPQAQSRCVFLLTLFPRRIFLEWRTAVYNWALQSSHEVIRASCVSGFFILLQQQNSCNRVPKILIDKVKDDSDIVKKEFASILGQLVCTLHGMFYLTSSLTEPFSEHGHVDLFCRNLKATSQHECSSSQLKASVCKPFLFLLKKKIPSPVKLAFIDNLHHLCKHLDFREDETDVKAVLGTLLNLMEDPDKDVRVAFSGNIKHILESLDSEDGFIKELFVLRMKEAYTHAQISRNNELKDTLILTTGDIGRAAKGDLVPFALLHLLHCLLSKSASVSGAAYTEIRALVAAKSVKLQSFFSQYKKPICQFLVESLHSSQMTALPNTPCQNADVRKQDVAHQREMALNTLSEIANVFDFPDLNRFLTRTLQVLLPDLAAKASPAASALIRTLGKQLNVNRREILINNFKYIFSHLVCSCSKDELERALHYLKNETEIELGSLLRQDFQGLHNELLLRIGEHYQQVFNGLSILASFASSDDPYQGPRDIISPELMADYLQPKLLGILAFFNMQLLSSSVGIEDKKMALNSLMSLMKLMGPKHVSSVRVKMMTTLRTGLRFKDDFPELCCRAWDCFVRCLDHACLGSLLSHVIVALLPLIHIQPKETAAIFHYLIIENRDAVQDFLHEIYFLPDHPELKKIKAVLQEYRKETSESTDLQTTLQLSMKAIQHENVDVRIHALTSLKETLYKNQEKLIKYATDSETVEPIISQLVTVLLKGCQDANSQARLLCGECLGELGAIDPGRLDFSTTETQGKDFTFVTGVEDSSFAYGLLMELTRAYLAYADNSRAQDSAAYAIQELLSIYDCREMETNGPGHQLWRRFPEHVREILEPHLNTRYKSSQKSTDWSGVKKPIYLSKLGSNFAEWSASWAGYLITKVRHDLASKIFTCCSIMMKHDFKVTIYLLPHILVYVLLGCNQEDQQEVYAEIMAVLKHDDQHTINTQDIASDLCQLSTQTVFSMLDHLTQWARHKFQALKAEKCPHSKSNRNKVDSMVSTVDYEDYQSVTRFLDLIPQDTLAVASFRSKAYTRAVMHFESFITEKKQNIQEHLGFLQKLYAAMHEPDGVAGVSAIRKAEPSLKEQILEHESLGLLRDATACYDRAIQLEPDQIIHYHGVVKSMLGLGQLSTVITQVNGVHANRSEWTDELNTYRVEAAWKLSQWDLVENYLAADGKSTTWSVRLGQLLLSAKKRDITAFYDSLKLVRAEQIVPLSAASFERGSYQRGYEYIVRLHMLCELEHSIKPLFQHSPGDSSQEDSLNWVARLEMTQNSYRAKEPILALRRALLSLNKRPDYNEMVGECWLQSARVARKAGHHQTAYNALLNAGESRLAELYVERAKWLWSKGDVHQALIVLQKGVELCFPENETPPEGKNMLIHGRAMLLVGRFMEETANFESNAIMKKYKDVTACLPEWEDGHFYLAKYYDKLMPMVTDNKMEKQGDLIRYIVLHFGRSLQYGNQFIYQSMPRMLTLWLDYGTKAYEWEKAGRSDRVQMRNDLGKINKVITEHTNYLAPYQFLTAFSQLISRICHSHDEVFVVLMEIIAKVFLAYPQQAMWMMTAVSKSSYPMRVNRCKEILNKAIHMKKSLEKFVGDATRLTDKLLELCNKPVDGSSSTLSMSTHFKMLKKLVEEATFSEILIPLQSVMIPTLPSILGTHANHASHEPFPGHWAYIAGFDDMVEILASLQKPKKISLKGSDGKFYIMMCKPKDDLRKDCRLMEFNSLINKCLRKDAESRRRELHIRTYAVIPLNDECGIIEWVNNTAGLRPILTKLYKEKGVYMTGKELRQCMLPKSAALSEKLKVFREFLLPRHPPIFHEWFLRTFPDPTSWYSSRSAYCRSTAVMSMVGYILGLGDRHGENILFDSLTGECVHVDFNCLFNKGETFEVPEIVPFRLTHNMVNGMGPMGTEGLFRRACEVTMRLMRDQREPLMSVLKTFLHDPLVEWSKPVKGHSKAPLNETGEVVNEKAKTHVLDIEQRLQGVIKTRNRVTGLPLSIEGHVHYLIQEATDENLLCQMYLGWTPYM

Consider `Nc1nn2cc(F)cnc2c1C(=O)Nc1cnccc1-c1ccc(C(=O)N2CCN(C3COC3)CC2)cc1` [I-C-49, 2-amino-6-fluoro-N-(4-(4-(4-(oxetan-3-yl)piperazine-1-carbonyl)phenyl)pyridin-3-yl)pyrazolo[1,5-a]pyrimidine-3-carboxamide], for which the Ki under setting [1] was 10 to 1000 nM.
Still for that read-out and setting: to `CO[C@H]1CCN(C(=O)C2CCN(c3c(F)cncc3NC(=O)c3c(N)nn4cc(F)cnc34)CC2)C1` [I-G-99, (S)-2-amino-6-fluoro-N-(5-fluoro-4-(4-(3-methoxypyrrolidine-1-carbonyl)piperidin-1-yl)pyridin-3-yl)pyrazolo[1,5-a]pyrimidine-3-carboxamide] belongs 10 to 1000 nM.
On to `Nc1nn2cc(F)cnc2c1C(=O)Nc1cnccc1N1CCC2(CC1)COC2` [I-N-226, N-(4-(2-oxa-7-azaspiro[3.5]nonan-7-yl)pyridin-3-yl)-2-amino-6-fluoropyrazolo[1,5-a]pyrimidine-3-carboxamide], for which, under setting [1], the Ki lay in the range of 10 to 1000 nM.
The same measure, in the same setting: for `Nc1nn2cc(F)cnc2c1C(=O)Nc1cncc(F)c1N1CCC(C(=O)N2CC(F)(F)C2)CC1` [I-G-73, 2-amino-N-(4-(4-(3,3-difluoroazetidine-1-carbonyl)piperidin-1-yl)-5-fluoropyridin-3-yl)-6-fluoropyrazolo[1,5-a]pyrimidine-3-carboxamide] the value was 10 to 1000 nM.
Consider `Nc1nn2cc(F)cnc2c1C(=O)Nc1cncc(F)c1N1CCN([C@H]2CCOC2)CC1` [I-N-125, (S)-2-amino-6-fluoro-N-(5-fluoro-4-(4-(tetrahydrofuran-3-yl)piperazin-1-yl)pyridin-3-yl)pyrazolo[1,5-a]pyrimidine-3-carboxamide], for which the Ki under setting [1] was in the range of 10 to 1000 nM.
Still for that read-out and setting: to `COC(=O)[C@H]1CC[C@H](Oc2ccncc2NC(=O)c2c(N)nn3cc(F)cnc23)CC1` [I-O-13, (1r,4)-methyl 4-((3-(2-amino-6-fluoropyrazolo[1,5-a]pyrimidine-3-carboxamido)pyridin-4-yl)oxy)cyclohexanecarboxylate] belongs 10 to 1000 nM; to `Cn1cc(-c2ccncc2NC(=O)c2c(N)nn3cc(F)cnc23)ccc1=O` [I-C-59, 2-amino-6-fluoro-N-(1-methyl-6-oxo-1,6-dihydro-[3,4′-bipyridin]-3′-yl)pyrazolo[1,5-a]pyrimidine-3-carboxamide], 10 to 1000 nM; to `Nc1nn2cc(F)cnc2c1C(=O)Nc1cncc(F)c1N1CCN2CCOC[C@@H]2C1` [I-N-137, (S)-2-amino-6-fluoro-N-(5-fluoro-4-(hexahydropyrazino[2,1-c][1,4]oxazin-8(1H)-yl)pyridin-3-yl)pyrazolo[1,5-a]pyrimidine-3-carboxamide], 10 to 1000 nM.
Same read-out and setting: to `Nc1nn2cc(Cl)cnc2c1C(=O)Nc1cnccc1N1CCNCC1` [I-N-88, 2-amino-6-chloro-N-(4-(piperazin-1-yl)pyridin-3-yl)pyrazolo[1,5-a]pyrimidine-3-carboxamide] belongs 10 to 1000 nM; to `CN1CC2(CCN(c3c(F)cncc3NC(=O)c3c(N)nn4cc(F)cnc34)CC2)OC1=O` [I-N-229, 2-amino-6-fluoro-N-(5-fluoro-4-(3-methyl-2-oxo-1-oxa-3,8-diazaspiro[4.5]decan-8-yl)pyridin-3-yl)pyrazolo[1,5-a]pyrimidine-3-carboxamide], 10 to 1000 nM.
In the case of `CN1CC(NC(=O)C2CCN(c3c(F)cncc3NC(=O)c3c(N)nn4cc(F)cnc34)CC2)C1` [I-G-23, 2-amino-6-fluoro-N-(5-fluoro-4-(4-((1-methylazetidin-3-yl)carbamoyl)piperidin-1-yl)pyridin-3-yl)pyrazolo[1,5-a]pyrimidine-3-carboxamide], under setting [1], the Ki was 10 to 1000 nM.
Still for that read-out and setting: to `Cc1ncn(-c2ccncc2NC(=O)c2c(N)nn3cc(F)cnc23)n1` [I-N-161, 2-amino-6-fluoro-N-(4-(3-methyl-1H-1,2,4-triazol-1-yl)pyridin-3-yl)pyrazolo[1,5-a]pyrimidine-3-carboxamide] belongs 10 to 1000 nM; to `Nc1nn2cc(Cl)cnc2c1C(=O)Nc1cnccc1N1CCN(C2CC2)CC1` [I-N-64, 2-amino-6-chloro-N-(4-(4-cyclopropylpiperazin-1-yl)pyridin-3-yl)pyrazolo[1,5-a]pyrimidine-3-carboxamide], 10 to 1000 nM; to `Cc1cncc(NC(=O)c2c(N)nn3cc(F)cnc23)c1N1CCN(C2COC2)CC1` [I-N-16, 2-amino-6-fluoro-N-(5-methyl-4-(4-(oxetan-3-yl)piperazin-1-yl)pyridin-3-yl)pyrazolo[1,5-a]pyrimidine-3-carboxamide], 10 to 1000 nM.
`Nc1nn2cc(F)cnc2c1C(=O)Nc1cnccc1-n1ccnc1` [I-N-7, N-(4-(1H-imidazol-1-yl)pyridin-3-yl)-2-amino-6-fluoropyrazolo[1,5-a]pyrimidine-3-carboxamide]: the Ki under setting [1] lay within 10 to 1000 nM.
On the same count and under the same terms, for `CS(=O)(=O)C1CN(C(=O)C2CCN(c3c(F)cncc3NC(=O)c3c(N)nn4cc(F)cnc34)CC2)C1` [I-G-86, 2-amino-6-fluoro-N-(5-fluoro-4-(4-(3-(methylsulfonyl)azetidine-1-carbonyl)piperidin-1-yl)pyridin-3-yl)pyrazolo[1,5-a]pyrimidine-3-carboxamide] the value was 10 to 1000 nM; for `COCCS(=O)(=O)C1CCN(c2ccncc2NC(=O)c2c(N)nn3cc(F)cnc23)CC1` [I-N-208, 2-amino-6-fluoro-N-(4-(4-((2-methoxyethyl)sulfonyl)piperidin-1-yl)pyridin-3-yl)pyrazolo[1,5-a]pyrimidine-3-carboxamide], 10 to 1000 nM.
Same read-out and setting: for `CC(C)(O)C1CCN(c2ccncc2NC(=O)c2c(N)nn3cc(Cl)cnc23)CC1` [I-N-69, 2-amino-6-chloro-N-(4-(4-(2-hydroxypropan-2-yl)piperidin-1-yl)pyridin-3-yl)pyrazolo[1,5-a]pyrimidine-3-carboxamide] the value was 10 to 1000 nM; for `CN1CC(C(=O)N2CCN(c3c(F)cncc3NC(=O)c3c(N)nn4cc(F)cnc34)CC2)C1` [I-N-194], 10 to 1000 nM; for `Nc1nn2cc(F)cnc2c1C(=O)Nc1cnccc1-c1ccccn1` [I-C-60, N-([2,4′-bipyridin]-3′-yl)-2-amino-6-fluoropyrazolo[1,5-a]pyrimidine-3-carboxamide], 10 to 1000 nM.
For the compound `Nc1nn2cc(F)cnc2c1C(=O)Nc1cncc2c1CCNC2` [I-C-7, 2-amino-6-fluoro-N-(5,6,7,8-tetrahydro-2,7-naphthyridin-4-yl)pyrazolo[1,5-a]pyrimidine-3-carboxamide], under setting [1], the Ki lay within 10 to 1000 nM.
In the case of `CN1CCC(Oc2ccncc2NC(=O)c2c(N)nn3cc(Cl)cnc23)CC1` [I-O-64, 2-amino-6-chloro-N-(4-((1-methylpiperidin-4-yl)oxy)pyridin-3-yl)pyrazolo[1,5-a]pyrimidine-3-carboxamide], under setting [1], the Ki fell in the range of 10 to 1000 nM.
For the compound `Nc1nn2cc(F)cnc2c1C(=O)Nc1cnccc1N1CCCCCC1` [I-N-264, 2-amino-N-(4-(azepan-1-yl)pyridin-3-yl)-6-fluoropyrazolo[1,5-a]pyrimidine-3-carboxamide], the Ki lay in the range of 1000 to 5000 nM.
Take `Nc1nn2cc(Cl)cnc2c1C(=O)Nc1cnccc1O[C@@H]1CCNC1` [I-O-77, (R)-2-amino-6-chloro-N-(4-(pyrrolidin-3-yloxy)pyridin-3-yl)pyrazolo[1,5-a]pyrimidine-3-carboxamide]: under setting [1], the Ki lay within 10 to 1000 nM.
The same measure, in the same setting: to `COC1CCN(c2ccncc2NC(=O)c2c(N)nn3cc(Cl)cnc23)CC1` [I-N-73, 2-amino-6-chloro-N-(4-(4-methoxypiperidin-1-yl)pyridin-3-yl)pyrazolo[1,5-a]pyrimidine-3-carboxamide] belongs 10 to 1000 nM.
